Reference: patent publication US20250059188A1, “ARYLSULPHONAMIDE COMPOUNDS” (Anaxis Pharma Pty Ltd, priority 2021, published 2025)

Experiments:
[1] = test system: U937 human histiocytic leukemia cell line; assay: Inhibition of TSQ induced necroptosis in U937 cells (CellTitre-Glo); conditions: Homo sapiens, U-937, TSQ cocktail (TNF, Smac mimetic, Q-VD-OPh), 48 hours, read-out: Inhibition of TSQ-induced necroptosis (IC50 cell-based assay)
Procedure, shortened: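 Necroptosis was induced with TNF-Fc (100 ng/ml), Smac mimetic (500 nM) and Q-VD-OPh (10 μM) in 20000 U937 cells/well exposed to a 10-point, 3-fold compound series (top 36 μM, 0.3% DMSO). ATP luminescence read after 48 h; 4-parameter fit gave IC50. Parallel TSQ-free wells assessed compound toxicity.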

human MLKL (full length) = human MLKL (full length) (Homo sapiens (Human), UniProt Q8NB16); assay: KINOMEscan binding assay, human MLKL (full length); conditions: equilibrium dissociation constant
Procedure, shortened: (§1)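 In this assay, compounds displace DNA- or phage-tagged kinase from an immobilized ligand, and eluted kinase is quantified by qPCR.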

human RIPK3 = human RIPK3 (Homo sapiens (Human), UniProt Q9Y572); assay: KINOMEscan binding assay, human RIPK3; conditions: equilibrium dissociation constant
Procedure, shortened: as §1

human RIPK1 = human RIPK1 (Homo sapiens (Human), UniProt Q13546); assay: KINOMEscan binding assay, human RIPK1; conditions: equilibrium dissociation constant
Procedure, shortened: as §1

Sequence of human RIPK3 (Q9Y572 whole entry): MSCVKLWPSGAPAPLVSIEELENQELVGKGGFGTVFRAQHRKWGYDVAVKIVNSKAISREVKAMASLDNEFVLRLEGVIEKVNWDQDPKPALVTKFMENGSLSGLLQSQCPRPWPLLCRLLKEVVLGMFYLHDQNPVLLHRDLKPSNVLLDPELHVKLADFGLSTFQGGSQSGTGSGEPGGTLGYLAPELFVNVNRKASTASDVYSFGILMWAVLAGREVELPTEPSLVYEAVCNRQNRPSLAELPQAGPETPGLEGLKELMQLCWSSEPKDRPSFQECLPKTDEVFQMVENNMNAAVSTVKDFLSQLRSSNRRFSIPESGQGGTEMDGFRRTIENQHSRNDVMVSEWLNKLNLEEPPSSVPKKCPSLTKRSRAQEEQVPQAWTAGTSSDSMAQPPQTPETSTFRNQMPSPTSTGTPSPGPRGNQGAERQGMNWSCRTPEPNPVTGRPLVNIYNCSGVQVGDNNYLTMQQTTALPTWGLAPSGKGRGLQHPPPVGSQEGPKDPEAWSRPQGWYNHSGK
Sequence of human RIPK1 (Q13546 whole entry): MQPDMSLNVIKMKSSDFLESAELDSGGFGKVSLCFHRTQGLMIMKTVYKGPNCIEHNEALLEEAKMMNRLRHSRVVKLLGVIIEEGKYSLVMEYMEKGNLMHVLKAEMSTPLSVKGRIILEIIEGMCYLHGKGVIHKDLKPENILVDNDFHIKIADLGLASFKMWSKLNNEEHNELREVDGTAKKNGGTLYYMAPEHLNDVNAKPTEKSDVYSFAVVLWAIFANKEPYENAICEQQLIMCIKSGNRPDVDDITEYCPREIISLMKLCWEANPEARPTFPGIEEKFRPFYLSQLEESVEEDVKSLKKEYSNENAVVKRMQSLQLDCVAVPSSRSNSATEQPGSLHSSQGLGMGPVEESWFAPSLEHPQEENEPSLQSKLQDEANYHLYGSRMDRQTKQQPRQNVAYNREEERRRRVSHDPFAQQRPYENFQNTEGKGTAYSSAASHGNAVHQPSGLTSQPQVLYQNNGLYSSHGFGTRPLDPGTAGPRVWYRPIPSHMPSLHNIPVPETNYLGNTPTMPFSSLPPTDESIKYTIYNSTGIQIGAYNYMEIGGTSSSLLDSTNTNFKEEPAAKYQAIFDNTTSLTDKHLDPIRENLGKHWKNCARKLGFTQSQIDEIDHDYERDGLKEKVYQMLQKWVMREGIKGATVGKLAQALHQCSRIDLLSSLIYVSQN
Sequence of human MLKL (full length) (Q8NB16 whole entry): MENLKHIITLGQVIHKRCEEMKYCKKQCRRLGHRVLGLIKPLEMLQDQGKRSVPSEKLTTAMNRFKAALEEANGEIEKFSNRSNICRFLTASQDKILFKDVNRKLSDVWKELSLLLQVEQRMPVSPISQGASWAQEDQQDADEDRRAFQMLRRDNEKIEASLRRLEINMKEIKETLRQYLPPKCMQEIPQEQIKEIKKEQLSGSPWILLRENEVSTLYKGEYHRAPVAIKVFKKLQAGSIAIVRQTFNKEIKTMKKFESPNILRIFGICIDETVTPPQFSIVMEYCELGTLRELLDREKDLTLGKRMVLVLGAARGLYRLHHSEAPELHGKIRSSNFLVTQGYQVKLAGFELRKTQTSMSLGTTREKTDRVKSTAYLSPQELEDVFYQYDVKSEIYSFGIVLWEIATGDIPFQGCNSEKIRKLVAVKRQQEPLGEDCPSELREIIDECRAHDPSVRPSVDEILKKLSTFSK

SMILES	IC50 [1] [µM]	Kd (human MLKL (full length)) [µM]	Kd (human RIPK3) [µM]	Kd (human RIPK1) [µM]
C[C@H](Oc1cc(-c2nn(C)c3c(C#CC4CCN(C)CC4)cnc(N)c23)ccc1NS(=O)(=O)C(F)F)c1ccc(F)cc1 [Compound 80, (S)—N-(4-(4-amino-1-methyl-7-((1-methylpiperidin-4-yl)ethynyl)-1H-pyrazolo[4,3-c]pyridin-3-yl)-2-(1-(4-fluorophenyl)ethoxy)phenyl)-1,1-difluoromethanesulfonamide]	0.01 to 1	< 0.001	> 10	> 10
C[C@H](Oc1cc(-c2nn(C)c3c(-c4cnn(C5CCN(C)C(C)(C)C5)c4)cnc(N)c23)ccc1NS(=O)(=O)C(F)F)c1ccc(F)cc1 (single isomer, unassigned) [Compound 154, N-(4-(4-amino-1-methyl-7-(1-((R*)-1,2,2-trimethylpiperidin-4-yl)-1H-pyrazol-4-yl)-1H-pyrazolo[4,3-c]pyridin-3-yl)-2-((S)-1-(4-fluorophenyl)ethoxy)phenyl)-1,1-difluoromethanesulfonamide]	< 0.01	< 0.001	> 10	> 10
